Holding throughout (conditions): read-out: DPT
Test [1] deals with T1, human 5-HT2A receptor (h5-HT2AR) (Homo sapiens, UniProt P28223).
T1 construct: gene HTR2A; receptor cDNA (cDNA Resource Center) transiently expressed in HEK293T; with Rluc8-Galphaq, Gbeta3, GFP2-Ggamma9 for function
As to the kind of experiment: TRUPATH BRET2 G protein activation assay, HEK293T. In kind it is cell-based. The source says: TRUPATH BRET2 G protein activation assay, HEK293T on human 5-HT2A receptor (h5-HT2AR)
A general note: BRET reads energy transfer from a luciferase to a nearby fluorophore.

Test [2] deals with T2, human 5-HT1B receptor (h5-HT1BR) (Homo sapiens, UniProt P28222).
T2 construct: gene HTR1B; receptor cDNA (cDNA Resource Center) transiently expressed in HEK293T; with Rluc8-Galphai3, Gbeta3, GFP2-Ggamma9 for function
T2 sequence (P28222 whole entry): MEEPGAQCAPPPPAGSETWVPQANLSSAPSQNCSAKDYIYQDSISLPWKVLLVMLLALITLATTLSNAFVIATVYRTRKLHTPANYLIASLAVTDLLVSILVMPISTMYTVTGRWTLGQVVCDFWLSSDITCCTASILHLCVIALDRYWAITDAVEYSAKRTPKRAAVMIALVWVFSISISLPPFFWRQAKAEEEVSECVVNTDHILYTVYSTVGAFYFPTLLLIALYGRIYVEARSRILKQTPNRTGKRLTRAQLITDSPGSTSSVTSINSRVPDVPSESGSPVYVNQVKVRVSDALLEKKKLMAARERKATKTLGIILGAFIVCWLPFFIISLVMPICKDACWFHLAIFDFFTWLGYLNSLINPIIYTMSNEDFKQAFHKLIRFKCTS
Briefly: TRUPATH BRET2 G protein activation assay, HEK293T. In kind it is cell-based. The source says: TRUPATH BRET2 G protein activation assay, HEK293T on human 5-HT1B receptor (h5-HT1BR)

In test [3] the target is T3, human 5-HT1A receptor (h5-HT1AR) (Homo sapiens, UniProt P08908).
T3 construct: gene HTR1A; receptor cDNA (cDNA Resource Center) transiently expressed in HEK293T; with Rluc8-Galphai3, Gbeta3, GFP2-Ggamma9 for function
T3 sequence (P08908 whole entry): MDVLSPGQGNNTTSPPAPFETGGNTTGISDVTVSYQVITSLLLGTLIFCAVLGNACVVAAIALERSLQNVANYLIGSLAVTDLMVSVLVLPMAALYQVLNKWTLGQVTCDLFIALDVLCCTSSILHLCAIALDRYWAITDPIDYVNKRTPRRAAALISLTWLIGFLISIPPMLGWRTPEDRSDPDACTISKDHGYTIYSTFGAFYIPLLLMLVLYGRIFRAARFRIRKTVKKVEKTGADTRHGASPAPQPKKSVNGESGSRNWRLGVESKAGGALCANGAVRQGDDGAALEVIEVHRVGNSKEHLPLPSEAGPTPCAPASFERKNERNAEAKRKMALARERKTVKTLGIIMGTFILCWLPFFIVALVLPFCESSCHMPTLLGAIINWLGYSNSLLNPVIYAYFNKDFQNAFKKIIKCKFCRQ
Briefly: radioligand competition binding, cell membranes. The source says: radioligand competition binding, cell membranes on human 5-HT1A receptor (h5-HT1AR)

For test [4], the target named is T1, human 5-HT2A receptor (h5-HT2AR). Briefly: radioligand competition binding, cell membranes. An excerpt: radioligand competition binding, cell membranes on human 5-HT2A receptor (h5-HT2AR)
In general terms: Displacement assays read how much labelled ligand stays bound in the presence of the test substance.

The target of test [5] is T3, human 5-HT1A receptor (h5-HT1AR). As to the kind of experiment: TRUPATH BRET2 G protein activation assay, HEK293T. Type of test: cell-based. The source says: TRUPATH BRET2 G protein activation assay, HEK293T on human 5-HT1A receptor (h5-HT1AR)
For test [6], the target named is T2, human 5-HT1B receptor (h5-HT1BR). Briefly: radioligand competition binding, cell membranes. The source says: radioligand competition binding, cell membranes on human 5-HT1B receptor (h5-HT1BR)

Results on one compound are retold here after article PMC10580393, “The Psychedelic N,N-Dipropyltryptamine Prevents Seizures in a Mouse Model of Fragile X Syndrome via a Mechanism that Appears Independent of Serotonin and Sigma1 Receptors” (ACS Pharmacology & Translational Science, 2023).

T1 sequence (P28223 whole entry): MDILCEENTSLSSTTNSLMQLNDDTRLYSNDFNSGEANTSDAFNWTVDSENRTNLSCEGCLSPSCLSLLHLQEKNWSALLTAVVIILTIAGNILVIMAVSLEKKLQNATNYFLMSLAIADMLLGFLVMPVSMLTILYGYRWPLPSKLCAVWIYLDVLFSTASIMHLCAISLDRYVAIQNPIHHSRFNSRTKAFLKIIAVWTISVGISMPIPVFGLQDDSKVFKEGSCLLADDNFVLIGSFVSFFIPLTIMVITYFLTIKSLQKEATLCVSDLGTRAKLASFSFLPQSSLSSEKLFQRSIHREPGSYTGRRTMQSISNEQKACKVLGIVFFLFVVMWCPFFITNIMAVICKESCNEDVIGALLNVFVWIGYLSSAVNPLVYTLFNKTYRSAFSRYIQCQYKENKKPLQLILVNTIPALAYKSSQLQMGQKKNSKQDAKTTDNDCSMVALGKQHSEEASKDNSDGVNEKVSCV

With `CCCN(CCC)CCc1c[nH]c2ccccc12` [DPT], the EC50 in test [1] was 451 nM; in test [2], 1210 nM; in test [5] it was 2430 nM. Also, the Ki in test [3] was determined as 1640 nM; in test [4], 3 nM; in test [6], 8080 nM.
